In brackets after ≈: the same amount, converted by molar mass.
Tests used:
Staphylococcus aureus = assay: MIC micro broth dilution assay; type: cell-based; conditions: for MIC: Staphylococcus aureus
Summary of the method: (§1)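 Multidrug-resistant clinical ESKAPE isolates were grown overnight (Gram-positives in TSB, Gram-negatives in LB), diluted 1:1,000 and exposed to decreasing compound concentrations in DMF (≤2.0% DMF).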

Pseudomonas aeruginosa = assay: MIC micro broth dilution assay; type: cell-based; conditions: for MIC: Pseudomonas aeruginosa
Procedure: For this study we used a representative panel of multi-drug resistant clinical ESKAPE pathogen isolates (Supplemental Table S6).^42 43 3a, 44 45 Gram-positive organisms were grown in tryptic soy broth media (TSB), whilst Gram-negative organisms were grown in lysogeny Broth (LB), as described by us previously. ^43 MIC and MBC determination assays.
Broth cultures of ESKAPE strains were grown overnight before being diluted 1 in 1,000 in fresh media. Sterile 96-well plates were loaded with culture and compounds (in DMF) were added at decreasing concentrations to equal a total volume of 200 μl per well. Care was taken to not add more than 2.0% DMF to any well. Plates were then incubated at 37° C., and MICs determined after 24 hours by visual inspection for a lack of turbidity in wells. All assays were performed in triplicate with identical results obtained. For both the scaffold ranking and positional scanning samples, relative broad-spectrum activity was determined via stacked scores: […]

Enterobacter cloacae = assay: MIC micro broth dilution assay; type: cell-based; conditions: for MIC: Enterobacter cloacae
Summary of the method: as §1

Enterococcus faecium = assay: MIC micro broth dilution assay; type: cell-based; conditions: for MIC: Enterococcus faecium
Summary of the method: as §1

[1] = test system: Acinetobacter baumannii biofilm; assay: Minimum biofilm eradication concentration (MBEC) assay; type: cell-based; conditions: 24 h biofilm, purified compound
Procedure: (§2) The minimum biofilm eradication concentration (MBEC) was determined in 96-well microtiter plates as follows. Broth cultures of ESKAPE strains were grown using the conditions described above. Biofilms for each of the ESKAPE pathogens were generated from these as we have previously described for S. aureus, however human serum was not used for non-staphylococcal organisms.^44 46 For all organisms, biofilms were developed by standardizing an overnight culture into fresh media to an OD600 of 0.5 and adding 150 μl into each well of a 96-well microtiter plate. […] These cultures were incubated at 37° C. overnight alongside no drug controls. After 24 hours, the media was removed from wells and the biofilm resuspended in phosphate buffered saline (PBS). Cultures were mixed by vigorous pipetting, before being serially diluted in PBS, and plated in duplicate on relevant agar. Plates were incubated at 37° C. for 24 hours, and CFUs determined by enumeration. Each analysis was performed using three technical replicates, and antibiofilm activity was determined by comparing treated to untreated samples.

[2] = test system: Enterobacter cloacae biofilm; assay: as above; type: cell-based; conditions: 24 h biofilm, purified compound
Procedure: as §2

[3] = test system: Klebsiella pneumoniae biofilm; assay: as above; type: cell-based; conditions: 24 h biofilm, purified compound
Procedure: as §2

[4] = test system: Staphylococcus aureus biofilm; assay: as above; type: cell-based; conditions: 24 h biofilm, purified compound
Procedure: as §2

K. pneumoniae = assay: Resistance serial passage assay; type: cell-based, Klebsiella pneumoniae; conditions: 8 passages, concentration doubled each day
Procedure: (§3) ESKAPE pathogens were grown overnight in liquid media at 37° C. These cultures were then diluted 1:100 in fresh media, and seeded into a 96-well plate. Lead bis-cyclic guanidines or control agents were added to respective wells at half MIC concentrations. Plates were then incubated for 24 hours at 37° C., with bacteria removed from these cultures on the following day, to inoculate fresh media (1:100 dilution) containing compounds at a 2-fold higher concentrations. These were then grown overnight, and the procedure repeated for a total of eight days. […] Each experiment was performed in triplicate, yielding identical results.

A. baumannii = assay: Resistance serial passage assay; type: cell-based, Acinetobacter baumannii; conditions: 8 passages, concentration doubled each day
Procedure: as §3

[5] = test system: Staphylococcus aureus (USA300 strain FPR3757); assay: Murine model of lethal peritonitis; type: in vivo, mice; conditions: 2× MIC, I.M., 1 h post-infection, six mice per group
Procedure: Using MRSA as a representative ESKAPE organism, we infected mice with 1×10^8 bacterial cells in 5% mucin via intraperitoneal injection. At 1 h post-infection, mice were then I.V. injected with either vancomycin (positive control), or I.M. with our front runner compounds.
Six mice per group were injected with 1×10^8 CFU ml^−1 of Staphylococcus aureus (USA300 strain FPR3757) in PBS containing 5% mucin. […] Mice were monitored twice daily for five days to assess mortality. The clinical endpoint of this study was when the mice reached a pre-moribund state. Characteristics of pre-moribund state include: hunched posture, rapid, shallow and/or labored breathing, ruffled fur, lethargy, failure to respond to stimuli, soiled anogenital area, paralysis, paresis, head tilt, circling, vocalizations, non-purposeful movements and/or were unable to eat or drink. Those mice reaching this state prior to the completion of the 5 day infection period were euthanized. The number of mice surviving between control and treatment groups was compared and analyzed for statistical significance using a log rank test.

**Q.** Which “stacked score activity, 100/MIC, S” value (Staphylococcus aureus; S. aureus) does the source give for CCCCCCCN1C(=N)N(CCCC[C@H]2CNC(=N)N2CCCCC2CCCCC2)C[C@@H]1CC1CCCCC1 [Compound 16] here?
**A.** 20

**Q.** And the MIC (Staphylococcus aureus; S. aureus isolate 542)?
**A.** 2 µM (≈ 1.11 µg/mL)

**Q.** What about the MIC (Staphylococcus aureus; S. aureus isolate 626) of the same compound?
**A.** 2 µM (≈ 1.11 µg/mL)

**Q.** And the MIC (Staphylococcus aureus; S. aureus isolate 635)?
**A.** 2 µM (≈ 1.11 µg/mL)

**Q.** And the MIC (Staphylococcus aureus; S. aureus isolate 648)?
**A.** 2 µM (≈ 1.11 µg/mL)

**Q.** And the MIC (Staphylococcus aureus; S. aureus isolate 690)?
**A.** 2 µM (≈ 1.11 µg/mL)

**Q.** And the MIC (Staphylococcus aureus; S. aureus isolate 693)?
**A.** 2 µM (≈ 1.11 µg/mL)

**Q.** What about the MIC (Staphylococcus aureus; S. aureus isolate 715) of the same compound?
**A.** 2 µM (≈ 1.11 µg/mL)

**Q.** And the MIC (Staphylococcus aureus; S. aureus isolate 728)?
**A.** 2 µM (≈ 1.11 µg/mL)

**Q.** What about the MIC (Staphylococcus aureus; S. aureus isolate 834) of the same compound?
**A.** 2 µM (≈ 1.11 µg/mL)

**Q.** And the MIC (Staphylococcus aureus; S. aureus isolate 1043)?
**A.** 2 µM (≈ 1.11 µg/mL)

**Q.** And the MIC (Staphylococcus aureus; S. aureus isolate 1049)?
**A.** 2 µM (≈ 1.11 µg/mL)

**Q.** What about the MIC (Staphylococcus aureus; purified compound, Table 1) of the same compound?
**A.** 1.62 µM (≈ 0.902 µg/mL)

**Q.** What about the MIC (Pseudomonas aeruginosa; P. aeruginosa isolate 1414) of the same compound?
**A.** 3 µM (≈ 1.67 µg/mL)

**Q.** What about the MIC (Pseudomonas aeruginosa; P. aeruginosa isolate 1415) of the same compound?
**A.** 3 µM (≈ 1.67 µg/mL)

**Q.** And the MIC (Pseudomonas aeruginosa; P. aeruginosa isolate 1416)?
**A.** 2 µM (≈ 1.11 µg/mL)

**Q.** What about the MIC (Pseudomonas aeruginosa; P. aeruginosa isolate 1417) of the same compound?
**A.** 3 µM (≈ 1.67 µg/mL)

**Q.** What about the MIC (Pseudomonas aeruginosa; P. aeruginosa isolate 1418) of the same compound?
**A.** 7 µM (≈ 3.9 µg/mL)

**Q.** What about the MIC (Pseudomonas aeruginosa; P. aeruginosa isolate 1419) of the same compound?
**A.** 3 µM (≈ 1.67 µg/mL)

**Q.** What about the MIC (Pseudomonas aeruginosa; P. aeruginosa isolate 1420) of the same compound?
**A.** 3 µM (≈ 1.67 µg/mL)

**Q.** What about the MIC (Pseudomonas aeruginosa; P. aeruginosa isolate 1421) of the same compound?
**A.** 3 µM (≈ 1.67 µg/mL)

**Q.** And the MIC (Pseudomonas aeruginosa; P. aeruginosa isolate 1422)?
**A.** 3 µM (≈ 1.67 µg/mL)

**Q.** And the MIC (Pseudomonas aeruginosa; P. aeruginosa isolate 1423)?
**A.** 2 µM (≈ 1.11 µg/mL)

**Q.** What about the MIC (Pseudomonas aeruginosa; purified compound, Table 1) of the same compound?
**A.** 1.62 µM (≈ 0.902 µg/mL)

**Q.** And the “concentration inhibiting 90% of isolates” value (Pseudomonas aeruginosa; panel of P. aeruginosa clinical isolates)?
**A.** 5 µM

**Q.** And the “stacked score activity, 100/MIC, E” value (Enterobacter cloacae; E. cloacae)?
**A.** 20

**Q.** What about the MIC (Enterobacter cloacae; E. cloacae isolate 1404) of the same compound?
**A.** 2 µM (≈ 1.11 µg/mL)

**Q.** What about the MIC (Enterobacter cloacae; E. cloacae isolate 1405) of the same compound?
**A.** 2 µM (≈ 1.11 µg/mL)

**Q.** And the MIC (Enterobacter cloacae; E. cloacae isolate 1430)?
**A.** 2 µM (≈ 1.11 µg/mL)

**Q.** What about the MIC (Enterobacter cloacae; E. cloacae isolate 1431) of the same compound?
**A.** 2 µM (≈ 1.11 µg/mL)

**Q.** What about the MIC (Enterobacter cloacae; E. cloacae isolate 1445) of the same compound?
**A.** 2 µM (≈ 1.11 µg/mL)

**Q.** And the MIC (Enterobacter cloacae; E. cloacae isolate 1446)?
**A.** 5 µM (≈ 2.78 µg/mL)

**Q.** And the MIC (Enterobacter cloacae; E. cloacae isolate 1447)?
**A.** 2 µM (≈ 1.11 µg/mL)

**Q.** And the MIC (Enterobacter cloacae; E. cloacae isolate 1448)?
**A.** 2 µM (≈ 1.11 µg/mL)

**Q.** What about the MIC (Enterobacter cloacae; E. cloacae isolate 1454) of the same compound?
**A.** 2 µM (≈ 1.11 µg/mL)

**Q.** What about the MIC (Enterobacter cloacae; E. cloacae isolate 1455) of the same compound?
**A.** 2 µM (≈ 1.11 µg/mL)

**Q.** What about the MIC (Enterobacter cloacae; purified compound, Table 1) of the same compound?
**A.** 1.62 µM (≈ 0.902 µg/mL)

**Q.** What about the “concentration inhibiting 90% of isolates” value (Enterobacter cloacae; panel of E. cloacae clinical isolates) of the same compound?
**A.** 2 µM

**Q.** What about the “stacked score activity, 100/MIC, E” value (Enterococcus faecium; E. faecium) of the same compound?
**A.** 33

**Q.** What about the MIC (Enterococcus faecium; E. faecium isolate 1406) of the same compound?
**A.** 2 µM (≈ 1.11 µg/mL)

**Q.** And the MIC (Enterococcus faecium; E. faecium isolate 1407)?
**A.** 2 µM (≈ 1.11 µg/mL)

**Q.** What about the MIC (Enterococcus faecium; E. faecium isolate 1432) of the same compound?
**A.** 2 µM (≈ 1.11 µg/mL)

**Q.** And the MIC (Enterococcus faecium; E. faecium isolate 1438)?
**A.** 2 µM (≈ 1.11 µg/mL)

**Q.** And the MIC (Enterococcus faecium; E. faecium isolate 1439)?
**A.** 2 µM (≈ 1.11 µg/mL)

**Q.** And the MIC (Enterococcus faecium; E. faecium isolate 1443)?
**A.** 2 µM (≈ 1.11 µg/mL)

**Q.** And the MIC (Enterococcus faecium; E. faecium isolate 1444)?
**A.** 2 µM (≈ 1.11 µg/mL)

**Q.** And the MIC (Enterococcus faecium; E. faecium isolate 1449)?
**A.** 2 µM (≈ 1.11 µg/mL)

**Q.** And the MIC (Enterococcus faecium; E. faecium isolate 1450)?
**A.** 2 µM (≈ 1.11 µg/mL)

**Q.** What about the MIC (Enterococcus faecium; E. faecium isolate 1451) of the same compound?
**A.** 2 µM (≈ 1.11 µg/mL)

**Q.** What about the MIC (Enterococcus faecium; purified compound, Table 1) of the same compound?
**A.** 1.62 µM (≈ 0.902 µg/mL)

**Q.** What about the MBEC50 [1] of the same compound?
**A.** 14.13 µM

**Q.** What about the MBEC50 [2] of the same compound?
**A.** 12.68 µM

**Q.** What about the MBEC50 [3] of the same compound?
**A.** 6.28 µM

**Q.** And the MBEC50 [4]?
**A.** 7.58 µM

**Q.** And the “increase in MIC after serial passage” value (K. pneumoniae)?
**A.** 8 fold

**Q.** What about the “increase in MIC after serial passage” value (A. baumannii) of the same compound?
**A.** 8 fold

**Q.** And the “survival of infected mice over 5 day infection period” value [5]?
**A.** only a single mouse succumbing to infection after the first day
